Assay [1] relates to Rabbit Full Thickness Articular Cartilage Defects. Description: Animal observation and gross pathology of rabbit knee cartilage defects at 12 weeks. It counts as in vivo, New Zealand White Rabbits. The settings on record: gross examination at 12 weeks. On the procedure:
Animal study was conducted at Northwestern University (Chicago, Ill.) in accordance with a protocol approved by the University's Animal Care and Usage Committee (ACUC). Ten (10) male New Zealand White Rabbits (weighing 3-3.5 kg) were anesthetized by intramuscular injection of ketamine at 30-40 mg/kg and xylazine 5-7 mg/kg. Isoflourane (1-3%) and oxygen were supplied by face mask until the animal was induced to sedation and general anesthesia for the entire procedure. Life support monitoring was supervised by veterinarians at Northwestern University's Center for Comparative Medicine (CCM, Chicago, Ill.). Under sterile aseptic technique, a midline 2-cm incision was made with the knee flexed at 20 degrees and subsequently a medial parapatellar capsulotomy was performed and the patella was translated laterally to expose the articular surface of the trochlea. Two full thickness chondral defects 2-mm in diameter were created in the trochlea (proximal-medial and distal-lateral) using curettes. […]
Post-operatively each rabbit was given intramuscular (IM) antibiotics (Baytril 72 hours duration) and IM pain medicine (Buprenex 24 hours duration). Signs of local or systemic infection were recorded as well as the general health and recovery of the rabbits. Rabbits were also evaluated for ability to weight bear and mobility within cages. […]

For assay [2], the target named is recombinant TGF-β1 (Homo sapiens, UniProt P01137). The settings on record: among all possible 7-mer peptide sequences; cited from earlier work.
recombinant TGF-β1, sequence (P01137 279-390 limits assumed): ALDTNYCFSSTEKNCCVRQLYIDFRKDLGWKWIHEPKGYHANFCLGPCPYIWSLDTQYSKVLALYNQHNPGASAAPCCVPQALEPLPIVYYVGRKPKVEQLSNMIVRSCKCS
Assay [3] deals with Rabbit Full Thickness Articular Cartilage Defects. Description: Histological evaluation (O'Driscoll scoring) of cartilage regeneration after microfracture in rabbit articular cartilage defect model. It counts as in vivo, New Zealand White Rabbits. As to the method: Animal study was conducted at Northwestern University (Chicago, Ill.) in accordance with a protocol approved by the University's Animal Care and Usage Committee (ACUC). Ten (10) male New Zealand White Rabbits (weighing 3-3.5 kg) were anesthetized by intramuscular injection of ketamine at 30-40 mg/kg and xylazine 5-7 mg/kg. Isoflourane (1-3%) and oxygen were supplied by face mask until the animal was induced to sedation and general anesthesia for the entire procedure. Life support monitoring was supervised by veterinarians at Northwestern University's Center for Comparative Medicine (CCM, Chicago, Ill.). Under sterile aseptic technique, a midline 2-cm incision was made with the knee flexed at 20 degrees and subsequently a medial parapatellar capsulotomy was performed and the patella was translated laterally to expose the articular surface of the trochlea. Two full thickness chondral defects 2-mm in diameter were created in the trochlea (proximal-medial and distal-lateral) using curettes. The articular cartilage, including the calcified cartilage layer, was completely removed and subchondral bone was exposed using a micro-curette as shown in FIG. 4a. Care was taken to not disrupt the subchondral bone, and sharp edges were created at the transition zone with the surrounding intact cartilage. Microfracture was performed within the defects by creating 3 holes spaced equally apart, and 2-mm deep to subchondral bone with a micro-awl. Marrow blood was seen emerging out of each microfracture hole and was allowed to infiltrate the cartilage defect (see FIG. 4b), which was then treated as described in Example 4.2 by application of the TGF-binding peptide amphiphile gel, or a control gel, with or without the addition of exogenous recombinant TGF-β1.
Post-operatively each rabbit was given intramuscular (IM) antibiotics (Baytril 72 hours duration) and IM pain medicine (Buprenex 24 hours duration). Signs of local or systemic infection were recorded as well as the general health and recovery of the rabbits. Rabbits were also evaluated for ability to weight bear and mobility within cages. At 12-weeks post-surgery rabbits were euthanized by injection of pentobarbital intravenously with a secondary measure of bilateral thoracotomy. Subsequently, the distal femur was harvested and processed for histological analysis.
Two full-thickness defects were created in each knee, resulting in 4 defects per rabbit (or 40 defects total for the 10 rabbits studied). Rabbit knees were divided into 4 groups, with both defects in each knee receiving the same treatment, and the contralateral knee serving as a control to account for any systemic effects. A total volume of 10 microliters (uL) of the test solutions were administered directly to each cartilage defect by micropipette, using sterile, disposable plastic tips. The treatment received by each group is summarized as follows:
In order to induce gelation of the peptide amphiphile solutions in situ in the defect site, 8 uL of a 12.5 mg/mL PA solution in phosphate-buffered saline (PBS) was administered followed immediately by 2 uL of a 0.5 M CaCl2 (in water), resulting in a final concentration of 10 mg/mL of the peptide amphiphile and 100 mM CaCl2. Recombinant human TGF-β1 (rhTGF-β1, Peprotech Inc.) was included in the PA solutions for Group 1, 2 and 3, in a concentration of […], resulting in a total dose of 1 ng per defect at the treatment dose of 10 uL. For animals receiving the TGF-binding peptide amphiphile (SEQ ID NO:4) this molecule was mixed at 10 mol % with the filler peptide amphiphile (SEQ ID NO:8) (a 1:9 molecular ratio). Each defect received 0.1 mg total peptide amphiphile (10 mg/mL in a 10 uL dose), either filler PA alone (Group 2) or filler PA plus TGF-binding PA (Group 3 and 4).
After the animals were sacrificed and tissue harvested at 12 weeks, extracted femur specimens were fixed in 10% neutral buffered formalin, decalcified for 24 hours, and the tissue processed for paraffin embedding. […]

Where [4] appears, read: O'Driscoll score = 0, 1, 2 or 3, Mean ± SD, 12-weeks post-treatment.
The mark [5] stands for this setting: O'Driscoll score = 0, 1 or 2, Mean ± SD, 12-weeks post-treatment.

Where no end group is shown, it is not given here. The star is where a group is joined. Lauroyl = CCCCCCCCCCCC(=O)*

Consider “HSNGLPLGGGSEEEAAAVVV(K)-CO(CH2)10CH3 (HSNGLPLGGGSEEEAAAVVVK(Lauroyl)) [TGF-binding PA]”, for which the “macroscopic appearance of repair tissue (tissue fill, defect boundary)” value in assay [1] was “significantly more hyaline-like tissue filling the defects”.

Consider HSNGLPL, for which the “binding to recombinant TGF-β1 (phage display)” value in assay [2] is “strong, specific binding sequence”.

“rhTGF-β1: Recombinant human TGF-β1 (Peprotech Inc.); Group 1: 10 uL of PBS with 1 ng of rhTGF-β1”: the “qualitative assessment of histological sections (tissue morphology, defect fill, Safranin-O and Type II collagen staining)” value in assay [3] (12 weeks, compared to controls) is “few had complete filling of the defect area”. In assay [3] (setting [4]), the “Degenerative Changes” value was found to be 2.70 ± 0.35, the Hypocellularity came to 1.96 ± 0.72, the “Safranin-O staining of matrix” value is listed as 1.48 ± 0.60 and the Surface regularity was 2.00 ± 0.80. For the same substance, in assay [3] (setting [5]), the “Bonding to adjacent cartilage” value is 1.33 ± 0.53, the Chondrocyte clustering is recorded as 1.26 ± 0.40, the Structural integrity turned out to be 1.07 ± 0.62 and the Thickness is 1.15 ± 0.60. The Cellular morphology in assay [3] (O'Driscoll score = 0, 2, or 4, Mean ± SD, 12-weeks post-treatment) is listed as 2.56 ± 1.43. In addition, in assay [3] (O'Driscoll total histological score, Mean ± SD, 12-weeks post-treatment), the “Total (max. score = 24)” value is listed as 15.52 ± 4.74. Also, the “O'Driscoll histological score” value in assay [3] (maximum possible score of 24, 12 weeks) is recorded as 15.5±4.7. For the same substance, in assay [3] (number of defects, 12 weeks), the “defects with <50% thickness compared to the surrounding cartilage” value was 1 of 9, the “defects with mild chondrocyte clustering” value was 7 of 9, the “defects with normal cellularity in the regenerated tissue” value is 2 of 9 and the “defects with regenerated tissue completely bonded to the adjacent cartilage” value is given as 3 of 9. Moreover, the “defects with >50% but <100% (50%-100%) thickness compared to the surrounding cartilage” value in assay [3] (number of remaining defects, 12 weeks) was found to be 8.

(Values after patent US8450271B2, “Peptide-based scaffolds for cartilage regeneration and methods for their use” (Northwestern University, priority 2009, dated 2013).)
